Results taken from patent US20100048596A2, “Indole Derivatives as Antitumoral Compounds” (Pharma Mar, S.A., priority 2005, published 2010).

Legend:
HOP-92 cancer lines = details: Jiang et al. 2001; cited from earlier work
CCRF-CEM cancer lines = details: Jiang et al. 2001; cited from earlier work
A-549 = details: literature; cited from earlier work
P388 = details: literature; cited from earlier work
MDA-MB-231 = format: cell-based; details: for GI50 / TGI: MDA-MB-231, 48 hours exposure, SRB; for TGI: total growth inhibition (cytostatic effect)
Description: (§1) The finality of these assays is to interrupt the growth of an “in vitro” tumor cell culture by means of a continued exhibition of the cells to the sample to be testing.
(§2) Inhibition of Cell Growth by Colorimetric Assay
(§3) A colorimetric type of assay, using sulforhodamine B (SRB) reaction has been adapted for a quantitative measurement of cell growth and viability [following the technique described by Philip Skehan et al. (1990), New calorimetric cytotoxicity assay for anticancer drug screening, J. Natl. Cancer Inst., 82:1107-1112].
(§4) This form of assay employs 96 well cell culture microplates of 9 mm diameter (Faircloth et al. Methods in cell science, (1988), 11(4), 201-205; Mosmann et al, Journal of Immunological. Methods (1983), 65(1-2), 55-63). Most of the cell lines are obtained from American Type Culture Collection (ATCC) derived from different human cancer types.
(§5) Cells are maintained in RPMI 1640 10% FBS, supplemented with 0.1 g/L penicillin and 0.1 g/L streptomycin sulphate and then incubated at 37° C., 5% CO2 and 98% humidity. For the experiments, cells were harvested from subconfluent cultures using trypsin and resuspended in fresh medium before plating.
(§6) Cells are seeded in 96 well microtiter plates, at 5×10^3 cells per well in aliquots of 195 μL medium, and they are allowed to attach to the plate surface by growing in drug free medium for 18 hours. Afterward, samples are added in aliquots of 5 μL in a ranging from 10 to 10^−8 μg/mL, dissolved in DMSO:EtOH:PBS (0.5:0.5:99). After 48 hours exposure, the antitumor effect is measured by the SRB methodology: cells are fixed by adding 50 μL of cold 50% (wt/vol) trichloroacetic acid (TCA) and incubated for 60 minutes at 4° C. Plates are washed with deionised water and dried. 100 μL of SRB solution (0.4% wt/vol in 1% acetic acid) is added to each microtiter well and incubated for 10 minutes at room temperature. Unbound SRB is removed by washing with 1% acetic acid. Plates are air dried and bound stain is solubilized with Tris buffer. Optical densities are read on an automated spectrophotometric plate reader at a single wavelength of 490 nm.
(§7) The values for mean+/−SD of data from triplicate wells are calculated. Some parameters for cellular responses can be calculated: GI=growth inhibition, TGI=total growth inhibition (cytostatic effect) and LC=cell killing (cytotoxic effect).

HT29 = format: cell-based; details: for GI50 / TGI: HT29, 48 hours exposure, SRB; for TGI: total growth inhibition (cytostatic effect)
Description: as §1, §2, §3, §4, §5, §6, §7

A549 = format: cell-based; details: for GI50 / TGI: A549, 48 hours exposure, SRB; for TGI: total growth inhibition (cytostatic effect)
Description: as §1, §2, §3, §4, §5, §6, §7

HT-29 = details: Sun and Sakemi 1991; cited from earlier work
IGROV1 tumor cell line = details: Jiang et al. 2001; cited from earlier work

Molecule	CC50 (MDA-MB-231) [µM]	GI50 (MDA-MB-231) [µM]	TGI (MDA-MB-231) [Molar]	GI50 (HT29) [µM]	TGI (HT29) [Molar]	GI50 (A549) [µM]	other results
COc1nc(-c2c[nH]c3ccccc23)cnc1N [compound 19, 2-amino-3methoxyl-5-(3′-indolyl)pyrazine]	–	–	–	–	–	–	GI50 (HOP-92 cancer lines): 0.03 µM; GI50 (CCRF-CEM cancer lines): 0.81 µM
6-hydroxydiscodermindole	–	–	–	–	–	–	IC50 (A-549): > 5 mg/L; IC50 (P388): 4.6 mg/L
CC(=O)N=C1NCCC(c2c[nH]c3ccc(Br)cc23)N1 (single isomer, unassigned) [Compound II]	6.26	0.418	1.52E−6	0.388	5.67E−7	0.656	–
COn1cc(C2CCNC(=NC(C)=O)N2)c2cc(Br)ccc21 (single isomer, unassigned) [Compound IV]	5.2	0.411	1.37E−6	0.329	4.65E−7	0.63	CC50 (HT29): 0.767 µM; TGI (A549): 7.12E−7 Molar
discodermindole	–	–	–	–	–	–	IC50 (A-549): 4.6 mg/L; IC50 (P388): 1.8 mg/L; IC50 (HT-29): 12 mg/L
COn1cc(C2CCNC(=NC(C)=O)N2)c2cc(Br)c(Br)cc21 (single isomer, unassigned) [Compound VI]	4.95	0.811	1.98E−6	0.473	9.23E−7	1.31	CC50 (HT29): 2.48 µM; CC50 (A549): 1.15 µM; TGI (A549): 4.05E−6 Molar
C1=CN(c2c[nH]c3ccccc23)C(c2c[nH]c3ccccc23)N=C1 (stereo not drawn) [compound 8, 2,3-bis(3-indolyl)pyrimidine]	–	–	–	–	–	–	GI50 (IGROV1 tumor cell line): < 0.01 µM
COn1cc(C2CCNC(=N)N2)c2cc(Br)c(Br)cc21 (single isomer, unassigned) [Compound V]	–	7.96	2.06E−5	7.96	1.74E−5	8.7	–
